Source: the supplement of paper PMC10307832

What was measured:
Experiment in all cases: relative viability (nuclei count vs DMSO), 5 days (fraction); higher = more cells survive
RO-3306 + Vorinostat = compound: C1=CC2=C(C=CC(=C2)C=C3C(=O)NC(=NCC4=CC=CS4)S3)N=C1 [RO-3306] + O=C(CCCCCCC(=O)Nc1ccccc1)NO [Vorinostat] (partner 1 µM)
Method in brief: (§1)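 Lung cancer cell lines were seeded in 1536-well plates and dosed by pin tool the next day, with either a single drug or a fixed anchor-drug dose combined with five library-drug doses (not always all listed) spaced in √10 steps. Five days later, one step fixed the cells and stained their nuclei (final 0.05% Triton X-100, 1% formaldehyde, 1 ug/ml Hoechst), and nuclei were counted on 4× images. Relative viability is the nuclei count in treated wells divided by the count in vehicle wells, and each value is the median of duplicate plates.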

RO-3306 + Navitoclax = compound: C1=CC2=C(C=CC(=C2)C=C3C(=O)NC(=NCC4=CC=CS4)S3)N=C1 [RO-3306] + CC1(C)CCC(c2ccc(Cl)cc2)=C(CN2CCN(c3ccc(C(=O)NS(=O)(=O)c4ccc(N[C@H](CCN5CCOCC5)CSc5ccccc5)c(S(=O)(=O)C(F)(F)F)c4)cc3)CC2)C1 [Navitoclax] (partner 0.5 µM)
Method in brief: as §1

RO-3306 + Pemetrexed = compound: C1=CC2=C(C=CC(=C2)C=C3C(=O)NC(=NCC4=CC=CS4)S3)N=C1 [RO-3306] + Nc1nc2[nH]cc(CCc3ccc(C(=O)N[C@@H](CCC(=O)O)C(=O)O)cc3)c2c(=O)[nH]1 [Pemetrexed] (partner 0.2 µM)
Method in brief: as §1

[1] = compound: O=S(=O)(c1ccccc1)N(CC(F)(F)F)c1ccc(C(O)(C(F)(F)F)C(F)(F)F)cc1 + Cc1nc(Nc2ncc(C(=O)Nc3c(C)cccc3Cl)s2)cc(N2CCN(CCO)CC2)n1 [Dasatinib] (partner 0.075 µM)
Method in brief: as §1

Cell Line | relative viability (RO-3306 + Vorinostat; first compound 0.01 µM) | relative viability (RO-3306 + Vorinostat; first compound 0.03162 µM) | relative viability (RO-3306 + Vorinostat; first compound 0.1 µM) | relative viability (RO-3306 + Vorinostat; first compound 0.3162 µM) | relative viability (RO-3306 + Vorinostat; first compound 1 µM) | relative viability (RO-3306 + Navitoclax; first compound 0.01 µM) | relative viability (RO-3306 + Navitoclax; first compound 0.03162 µM) | relative viability (RO-3306 + Navitoclax; first compound 0.1 µM) | relative viability (RO-3306 + Navitoclax; first compound 0.3162 µM) | relative viability (RO-3306 + Navitoclax; first compound 1 µM) | relative viability (RO-3306 + Pemetrexed; first compound 0.01 µM) | relative viability (RO-3306 + Pemetrexed; first compound 0.03162 µM) | relative viability (RO-3306 + Pemetrexed; first compound 0.1 µM) | relative viability (RO-3306 + Pemetrexed; first compound 0.3162 µM) | relative viability (RO-3306 + Pemetrexed; first compound 1 µM) | relative viability ([1]; first compound 0.8 µM) | relative viability ([1]; first compound 2.53 µM) | relative viability ([1]; first compound 8 µM)
HCC-15 | 0.923 | 0.712 | 0.898 | 0.854 | 0.773 | 0.727 | 0.656 | 0.716 | 0.808 | 0.654 | 0.203 | 0.21 | 0.26 | 0.225 | 0.199 | 0.616 | 0.496 | 0.539
EKVX | 0.75 |  | 0.739 | 0.663 | 0.712 | 1.02 | 0.94 | 1.06 | 0.971 | 0.921 | 0.416 | 0.306 | 0.405 | 0.444 | 0.454 | 0.525 | 0.514 | 0.335
PC-14 | 1.03 | 0.682 | 0.72 | 0.796 | 0.682 | 1.11 |  | 1.06 | 1.19 | 1.18 | 0.135 | 0.162 | 0.137 | 0.133 | 0.176 | 0.265 | 0.213 | 0.106
LK-2 | 0.293 | 0.248 | 0.324 | 0.275 | 0.295 | 0.892 | 0.751 | 0.828 | 0.913 | 0.792 | 0.266 | 0.293 | 0.264 | 0.275 | 0.288 | 0.36 | 0.37 | 0.432
LCLC-97TM1 | 0.804 | 0.546 | 0.694 | 0.789 | 1.1 |  | 0.292 | 0.354 | 0.399 | 0.317 | 0.175 | 0.169 | 0.144 | 0.178 | 0.185 | 0.724 | 0.734 | 0.682
NCI-H520 | 0.779 | 0.589 | 0.676 | 0.693 | 0.664 | 1.27 | 1.13 | 1.13 | 1.01 | 0.942 | 0.811 | 0.67 | 0.714 | 0.646 | 0.727 | 0.235 | 0.211 | 0.26
NCI-H2405 | 1.01 | 0.949 | 0.968 | 0.916 | 0.231 | 0.91 | 0.735 | 0.934 | 0.949 | 0.834 | 0.913 | 1.02 | 1.01 | 0.971 | 0.907 | 0.117 | 0.15 | 0.134
NCI-H596 | 0.589 | 0.512 | 0.533 | 0.726 | 0.713 | 0.894 | 0.967 | 0.962 | 0.994 | 0.72 | 0.519 | 0.403 | 0.467 | 0.522 | 0.452 | 0.594 | 0.566 | 0.52
EPLC-272H | 0.243 | 0.479 | 0.386 | 0.382 | 0.198 | 1.15 | 0.92 | 1.02 | 1.11 | 0.994 | 0.36 | 0.436 | 0.406 | 0.3 | 0.247 | 0.323 | 0.398 | 0.384
